# Laboratory results from patent US9422293B2 (priority 2006, dated 2016).
# Counter-ions that a name gives are not always drawn.
# Target: rat TRPV1 (Rattus norvegicus (Rat), UniProt O35433)
# Conditions: read-out: Rat IC50
# rat TRPV1, sequence (O35433 whole entry): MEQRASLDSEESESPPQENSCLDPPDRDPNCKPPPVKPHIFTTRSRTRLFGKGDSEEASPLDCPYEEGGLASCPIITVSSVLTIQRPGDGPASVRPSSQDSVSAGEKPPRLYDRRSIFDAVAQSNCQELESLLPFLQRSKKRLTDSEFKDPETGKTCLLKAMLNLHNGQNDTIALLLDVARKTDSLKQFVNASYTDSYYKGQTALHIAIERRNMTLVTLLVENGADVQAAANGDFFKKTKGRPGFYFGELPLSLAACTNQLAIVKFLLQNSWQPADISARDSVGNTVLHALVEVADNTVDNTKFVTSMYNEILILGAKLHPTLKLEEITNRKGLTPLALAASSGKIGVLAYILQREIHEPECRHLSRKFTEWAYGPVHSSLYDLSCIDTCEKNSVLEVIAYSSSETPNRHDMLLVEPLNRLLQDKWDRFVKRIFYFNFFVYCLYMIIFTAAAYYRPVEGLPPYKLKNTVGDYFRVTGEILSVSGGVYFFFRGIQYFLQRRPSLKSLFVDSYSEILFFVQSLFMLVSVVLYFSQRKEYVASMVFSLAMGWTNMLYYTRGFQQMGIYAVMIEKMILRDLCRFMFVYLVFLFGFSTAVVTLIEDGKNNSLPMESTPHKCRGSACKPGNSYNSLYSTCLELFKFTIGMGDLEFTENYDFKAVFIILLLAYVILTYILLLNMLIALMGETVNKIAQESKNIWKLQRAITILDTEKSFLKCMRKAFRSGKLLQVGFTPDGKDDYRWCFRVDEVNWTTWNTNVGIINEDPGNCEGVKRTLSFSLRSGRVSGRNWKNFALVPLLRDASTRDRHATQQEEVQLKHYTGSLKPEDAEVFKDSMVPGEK
row,SMILES,IC50
1,"O=S(=O)(c1ccc(Nc2nc(OC3CCCCC3)nc3c2CCN(c2ncccc2C(F)(F)F)CC3)cc1)C(F)(F)F [Example 308, 2-(Cyclohexyloxy)-7-[3-(trifluoromethyl)pyridin-2-yl]-N-{4-[(trifluoromethyl)sulfonyl]phenyl}-6,7,8,9-tetrahydro-5H-pyrimido[4,5-d]azepin-4-amine]",360 nM
2,"CC(C)c1nc2c(c(Nc3ccc(C(F)(F)F)cc3)n1)CCN(c1ncc([N+](=O)[O-])cc1C(F)(F)F)CC2 [Example 291, 2-(1-Methylethyl)-7-[5-nitro-3-(trifluoromethyl)pyridin-2-yl]-N-[4-(trifluoromethyl)phenyl]-6,7,8,9-tetrahydro-5H-pyrimido[4,5-d]azepin-4-amine]",170 nM
3,"FC(F)(F)c1ccc(Nc2nc(N3CCOCC3)nc3c2CCN(c2ncccc2C(F)(F)F)CC3)cc1Cl [Example 381, (3-Chloro-4-trifluoromethyl-phenyl)-[2-morpholin-4-yl-7-(3-trifluoromethyl-pyridin-2-yl)-6,7,8,9-tetrahydro-5H-pyrimido[4,5-d]azepin-4-yl]-amine]",40 nM
4,"Cc1cc(C(F)(F)F)ccc1Nc1nc(Sc2ccccc2)nc2c1CCN(c1ncccc1C(F)(F)F)CC2 [Example 351, N-[2-Methyl-4-(trifluoromethyl)phenyl]-2-(phenylsulfanyl)-7-[3-(trifluoromethyl)pyridin-2-yl]-6,7,8,9-tetrahydro-5H-pyrimido[4,5-d]azepin-4-amine]",750 nM
5,"O[C@H]1CCCN(c2nc3c(c(Nc4ccc(C(F)(F)F)cc4)n2)CCN(c2ncccc2C(F)(F)F)CC3)C1 [Example 94B, (S)-1-[4-(4-Trifluoromethyl-phenylamino)-7-(3-trifluoromethyl-pyridin-2-yl)-6,7,8,9-tetrahydro-5H-pyrimido[4,5-d]azepin-2-yl]-piperidin-3-ol trifluoroacetic acid salt]",190 nM
6,"Cc1nc2c(c(Nc3ccc(C(F)(F)F)cc3)n1)CCN(c1ncccc1C(F)(F)F)CC2 [Example 16, [2-Methyl-7-(3-trifluoromethyl-pyridin-2-yl)-6,7,8,9-tetrahydro-5H-pyrimido-[4,5-d]azepin-4-yl]-(4-trifluoromethyl-phenyl)-amine]",100 nM
7,"CN(C)c1ccc(Nc2nc(N(C)C)nc3c2CCN(c2ncccc2C(F)(F)F)CC3)cc1 [Example 79B, N^4-(4-Dimethylamino-phenyl)-N^2,N^2-dimethyl-7-(3-trifluoromethyl-pyridin-2-yl)-6,7,8,9-tetrahydro-5H-pyrimido[4,5-d]azepine-2,4-diamine trifluoroacetic acid salt]",1300 nM
8,"CC(Oc1nc2c(c(Nc3ccc4c(c3)N(C)CCC4)n1)CCN(c1ncccc1C(F)(F)F)CC2)C1CCCCC1 (stereo not drawn) [Example 316, 2-[(1-Cyclohexylethyl)oxy]-N-(1-methyl-1,2,3,4-tetrahydroquinolin-7-yl)-7-[3-(trifluoromethyl)pyridin-2-yl]-6,7,8,9-tetrahydro-5H-pyrimido[4,5-d]azepin-4-amine]",1180 nM
9,"CN(C)c1nc2c(c(Nc3ccc([N+](=O)[O-])cc3)n1)CCN(c1ncccc1C(F)(F)F)CC2 [Example 72B, N^2,N^2-Dimethyl-N^4-(4-nitro-phenyl)-7-(3-trifluoromethyl-pyridin-2-yl)-6,7,8,9-tetrahydro-5H-pyrimido[4,5-d]azepine-2,4-diamine trifluoroacetic acid salt]",180 nM
10,"CC(C)Sc1nc2c(c(Nc3ccc4c(c3)N(C)CCC4(C)C)n1)CCN(c1ncccc1C(F)(F)F)CC2 [Example 372, 2-[(1-Methylethyl)sulfanyl]-7-[3-(trifluoromethyl)pyridin-2-yl]-N-(1,4,4-trimethyl-1,2,3,4-tetrahydroquinolin-7-yl)-6,7,8,9-tetrahydro-5H-pyrimido[4,5-d]azepin-4-amine]",330 nM
11,"FC(F)(F)c1ccc(Nc2nc(-c3ccncc3)nc3c2CCN(c2ncccc2C(F)(F)F)CC3)cn1 [Example 170, 2-Pyridin-4-yl-7-[3-(trifluoromethyl)pyridin-2-yl]-N-[6-(trifluoromethyl)pyridin-3-yl]-6,7,8,9-tetrahydro-5H-pyrimido[4,5-d]azepin-4-amine trifluoroacetic acid salt]",60 nM
12,"O=S1(=O)CCCCN1c1nc2c(c(Nc3ccc(C(F)(F)F)cc3)n1)CCN(c1ncccc1C(F)(F)F)CC2 [Example 212, 2-(1,1-Dioxido-1,2-thiazinan-2-yl)-N-[4-(trifluoromethyl)phenyl]-7-[3-(trifluoromethyl)pyridin-2-yl]-6,7,8,9-tetrahydro-5H-pyrimido[4,5-d]azepin-4-amine trifluoroacetic acid salt]",220 nM
13,"CSc1nc2c(c(Nc3ccc(C(F)(F)F)cc3Cl)n1)CCN(c1ncccc1C(F)(F)F)CC2 [Example 203, N-[2-Chloro-4-(trifluoromethyl)phenyl]-2-(methylsulfanyl)-7-[3-(trifluoromethyl)pyridin-2-yl]-6,7,8,9-tetrahydro-5H-pyrimido[4,5-d]azepin-4-amine]",> 6670 nM
14,"CC(C)(C(=O)O)c1ccc(Nc2nc(N3CCOCC3)nc3c2CCN(c2ncccc2C(F)(F)F)CC3)cc1 [Example 392, 2-Methyl-2-{4-[2-morpholin-4-yl-7-(3-trifluoromethyl-pyridin-2-yl)-6,7,8,9-tetrahydro-5H-pyrimido[4,5-d]azepin-4-ylamino]-phenyl}-propionic acid]",1540 nM
15,"CN(C)c1nc2c(c(Nc3ccc(C(F)(F)F)cc3)n1)CCN(c1ncccc1C(F)(F)F)CC2 [Example 49, N^2,N^2-Dimethyl-N^4-(4-trifluoromethyl-phenyl)-7-(3-trifluoromethyl-pyridin-2-yl)-6,7,8,9-tetrahydro-5H-pyrimido[4,5-d]azepine-2,4-diamine]",240 nM
16,"CC(C)c1nc2c(c(Nc3ccc4c(c3)CCC4)n1)CCN(c1ncccc1C(F)(F)F)CC2 [Example 141, N-(2,3-Dihydro-1H-inden-5-yl)-2-(1-methylethyl)-7-[3-(trifluoromethyl)pyridin-2-yl]-6,7,8,9-tetrahydro-5H-pyrimido[4,5-d]azepin-4-amine hydrochloride salt]",130 nM
17,"CC(C)c1nc2c(c(Nc3ccc([N+](=O)[O-])cc3)n1)CCN(c1ncccc1C(F)(F)F)CC2 [Example 136, 2-(1-Methylethyl)-N-(4-nitrophenyl)-7-[3-(trifluoromethyl)pyridin-2-yl]-6,7,8,9-tetrahydro-5H-pyrimido[4,5-d]azepin-4-amine]",110 nM
18,"CN(C)c1nc2c(c(NCc3ccccc3)n1)CCN(c1ncccc1C(F)(F)F)CC2 [Example 70B, N^4-Benzyl-N^2,N^2-dimethyl-7-(3-trifluoromethyl-pyridin-2-yl)-6,7,8,9-tetrahydro-5H-pyrimido[4,5-d]azepine-2,4-diamine trifluoroacetic acid salt]",4400 nM
19,"FC(F)(F)c1ccc(Nc2nc(Sc3ccccc3)nc3c2CCN(c2ncccc2C(F)(F)F)CC3)cc1 [Example 349, 2-(Phenylsulfanyl)-N-[4-(trifluoromethyl)phenyl]-7-[3-(trifluoromethyl)pyridin-2-yl]-6,7,8,9-tetrahydro-5H-pyrimido[4,5-d]azepin-4-amine]",2350 nM
20,"CC(C)(C)c1ccc(Nc2nc(N3CCCCC3)nc3c2CCN(c2ncccc2C(F)(F)F)CC3)cc1[N+](=O)[O-] [Example 159, N-[4-(1,1-Dimethylethyl)-3-nitrophenyl]-2-piperidin-1-yl-7-[3-(trifluoromethyl)pyridin-2-yl]-6,7,8,9-tetrahydro-5H-pyrimido[4,5-d]azepin-4-amine]",30 nM
21,"FC(F)(F)c1ccc(Nc2nc(N3CCSCC3)nc3c2CCN(c2ncccc2C(F)(F)F)CC3)cc1 [Example 100, [2-Thiomorpholin-4-yl-7-(3-trifluoromethyl-pyridin-2-yl)-6,7,8,9-tetrahydro-5H-pyrimido[4,5-d]azepin-4-yl]-(4-trifluoromethyl-phenyl)-amine]",31 nM
22,"FC(F)(F)c1ccc(Nc2nc(OC3CCOCC3)nc3c2CCN(c2ncccc2C(F)(F)F)CC3)cc1 [Example 339, 2-(Tetrahydro-2H-pyran-4-yloxy)-N-[4-(trifluoromethyl)phenyl]-7-[3-(trifluoromethyl)pyridin-2-yl]-6,7,8,9-tetrahydro-5H-pyrimido[4,5-d]azepin-4-amine]",190 nM
23,"CC(C)c1nc2c(c(Nc3ccc(C(C)(C)C(=O)O)cc3)n1)CCN(c1ncccc1C(F)(F)F)CC2 [Example 184, 2-Methyl-2-[4-({2-(1-methylethyl)-7-[3-(trifluoromethyl)pyridin-2-yl]-6,7,8,9-tetrahydro-5H-pyrimido[4,5-d]azepin-4-yl}amino)phenyl]propanoic acid]",1950 nM
24,"CC(C)c1nc2c(c(Nc3ccc(S(=O)(=O)N4CCCC4)cc3)n1)CCN(c1ncccc1C(F)(F)F)CC2 [Example 152, 2-(1-Methylethyl)-N-[4-(pyrrolidin-1-ylsulfonyl)phenyl]-7-[3-(trifluoromethyl)pyridin-2-yl]-6,7,8,9-tetrahydro-5H-pyrimido[4,5-d]azepin-4-amine]",550 nM
25,"FC(F)(F)c1cccnc1N1CCc2nc(N3CCCCCC3)nc(NCc3ccc(Cl)c(Cl)c3)c2CC1 [Example 255, 2-Azepan-1-yl-N-[(3,4-dichlorophenyl)methyl]-7-[3-(trifluoromethyl)pyridin-2-yl]-6,7,8,9-tetrahydro-5H-pyrimido[4,5-d]azepin-4-amine]",700 nM
26,"CN(C)c1nc2c(c(Nc3ccc(Cl)cc3)n1)CCN(c1ncccc1C(F)(F)F)CC2 [Example 50B, N^4-(4-Chloro-phenyl)-N^2,N^2-dimethyl-7-(3-trifluoromethyl-pyridin-2-yl)-6,7,8,9-tetrahydro-5H-pyrimido[4,5-d]azepine-2,4-diamine trifluoroacetic acid salt]",910 nM

# Same assay, conditions: read-out: Rat IC50; hydrochloride salt
row,SMILES,IC50
1,"FC(F)(F)c1ccc(Nc2ncnc3c2CCN(c2ncccc2C(F)(F)F)CC3)cc1 [Example 2A, (4-Trifluoromethyl-phenyl)-[7-(3-trifluoromethyl-pyridin-2-yl)-6,7,8,9-tetra-hydro-5H-pyrimido[4,5-d]azepin-4-yl]-amine hydrochloride salt]",420 nM
